For data set [1], the target named is T1, Spindlin-1 (Homo sapiens, UniProt Q9Y657). Put plainly: biochemical.
The target of data set [2] is T1, Spindlin-1. Put plainly: biochemical. The source holds these as a separate data set.
Data set [3] deals with Histone-lysine N-methyltransferase EHMT1/EHMT2 (Homo sapiens) (UniProt Q9H9B1+Q96KQ7). Put plainly: Inhibition of human G9a catalytic domain/GLP catalytic domain in presence of SAM assessed as dissociation constant by isothermal calorimetry assay. The data set is classed as protein assay.
Histone-lysine N-methyltransferase EHMT1/EHMT2 (Homo sapiens), sequence (Q96KQ7 whole entry, looked up, the tested form may be a part): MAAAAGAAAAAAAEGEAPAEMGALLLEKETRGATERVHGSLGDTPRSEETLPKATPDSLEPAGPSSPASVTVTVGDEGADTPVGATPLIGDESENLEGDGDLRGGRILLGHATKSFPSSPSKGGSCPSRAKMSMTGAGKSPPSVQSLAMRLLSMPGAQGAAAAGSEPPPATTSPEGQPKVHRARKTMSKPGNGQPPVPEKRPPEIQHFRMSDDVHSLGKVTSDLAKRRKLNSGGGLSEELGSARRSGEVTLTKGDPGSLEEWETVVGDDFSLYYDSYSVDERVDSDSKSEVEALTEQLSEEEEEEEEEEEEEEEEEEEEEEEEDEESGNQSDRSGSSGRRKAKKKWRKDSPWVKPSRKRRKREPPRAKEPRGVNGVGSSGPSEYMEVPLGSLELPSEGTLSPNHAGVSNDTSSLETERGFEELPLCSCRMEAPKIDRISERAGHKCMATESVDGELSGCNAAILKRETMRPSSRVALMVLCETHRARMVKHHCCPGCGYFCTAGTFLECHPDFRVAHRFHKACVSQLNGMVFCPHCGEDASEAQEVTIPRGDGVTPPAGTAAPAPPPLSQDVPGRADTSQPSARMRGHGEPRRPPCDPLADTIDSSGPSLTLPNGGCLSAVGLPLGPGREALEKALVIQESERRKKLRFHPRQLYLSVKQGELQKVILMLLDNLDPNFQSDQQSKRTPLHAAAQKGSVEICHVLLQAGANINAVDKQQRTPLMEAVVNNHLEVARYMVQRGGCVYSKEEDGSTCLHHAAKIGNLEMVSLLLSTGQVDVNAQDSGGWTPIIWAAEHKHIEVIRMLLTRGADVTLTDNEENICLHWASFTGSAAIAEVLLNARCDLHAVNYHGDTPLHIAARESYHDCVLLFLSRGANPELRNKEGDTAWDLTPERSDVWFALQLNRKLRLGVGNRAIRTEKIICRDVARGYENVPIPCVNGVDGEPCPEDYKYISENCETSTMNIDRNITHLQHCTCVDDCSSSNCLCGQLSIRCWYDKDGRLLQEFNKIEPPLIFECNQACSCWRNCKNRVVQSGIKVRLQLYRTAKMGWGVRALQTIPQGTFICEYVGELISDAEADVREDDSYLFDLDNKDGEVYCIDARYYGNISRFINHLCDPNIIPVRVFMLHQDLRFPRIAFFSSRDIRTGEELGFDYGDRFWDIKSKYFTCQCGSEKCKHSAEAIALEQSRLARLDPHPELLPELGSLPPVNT
Histone-lysine N-methyltransferase EHMT1/EHMT2 (Homo sapiens), sequence (Q9H9B1 whole entry, looked up, the tested form may be a part): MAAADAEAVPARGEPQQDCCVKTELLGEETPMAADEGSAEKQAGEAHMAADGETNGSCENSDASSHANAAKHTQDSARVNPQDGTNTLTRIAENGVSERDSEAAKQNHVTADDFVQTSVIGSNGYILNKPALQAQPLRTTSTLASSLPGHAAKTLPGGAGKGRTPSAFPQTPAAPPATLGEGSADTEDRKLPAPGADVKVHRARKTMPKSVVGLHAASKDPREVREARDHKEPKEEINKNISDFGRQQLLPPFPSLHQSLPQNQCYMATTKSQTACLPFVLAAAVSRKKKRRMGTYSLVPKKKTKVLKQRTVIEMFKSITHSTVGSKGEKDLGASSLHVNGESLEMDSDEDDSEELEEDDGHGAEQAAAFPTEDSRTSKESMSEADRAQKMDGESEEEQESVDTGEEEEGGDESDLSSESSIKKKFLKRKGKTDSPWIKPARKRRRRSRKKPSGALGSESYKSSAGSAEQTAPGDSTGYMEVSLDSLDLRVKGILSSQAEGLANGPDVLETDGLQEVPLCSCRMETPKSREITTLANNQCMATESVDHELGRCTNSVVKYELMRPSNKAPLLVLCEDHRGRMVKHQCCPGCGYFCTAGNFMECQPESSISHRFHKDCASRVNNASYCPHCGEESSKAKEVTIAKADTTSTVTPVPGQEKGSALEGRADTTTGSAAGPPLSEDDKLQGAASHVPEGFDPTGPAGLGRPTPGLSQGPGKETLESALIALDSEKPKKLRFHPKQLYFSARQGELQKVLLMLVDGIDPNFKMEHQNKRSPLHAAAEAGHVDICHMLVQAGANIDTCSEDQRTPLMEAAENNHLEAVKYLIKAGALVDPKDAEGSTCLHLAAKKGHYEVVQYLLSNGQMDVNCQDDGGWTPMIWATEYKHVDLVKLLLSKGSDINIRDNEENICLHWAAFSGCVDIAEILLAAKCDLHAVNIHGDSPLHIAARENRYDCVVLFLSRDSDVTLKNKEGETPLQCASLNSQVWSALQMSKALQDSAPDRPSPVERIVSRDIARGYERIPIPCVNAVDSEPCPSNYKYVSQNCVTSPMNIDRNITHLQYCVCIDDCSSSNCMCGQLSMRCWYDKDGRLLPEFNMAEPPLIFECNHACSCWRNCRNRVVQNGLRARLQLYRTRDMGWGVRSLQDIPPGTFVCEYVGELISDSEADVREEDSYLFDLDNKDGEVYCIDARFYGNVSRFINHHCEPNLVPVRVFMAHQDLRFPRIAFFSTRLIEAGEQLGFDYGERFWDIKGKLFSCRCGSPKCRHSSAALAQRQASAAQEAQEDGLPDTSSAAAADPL
Data set [4] addresses T1, Spindlin-1.
In data set [5] the test system is C2C12. Put plainly: Cytotoxicity against mouse C2C12 cells assessed as reduction in cell viability up to 30 uM incubated for 6 days by resazurin dye based fluorescence assay. The settings on record: c2c12, 144 h. On the technique in general: The colour change of resazurin is a common sign of viable cells or microbes.
Data set [6] concerns HEK-293T. The data set is described as follows: Cytotoxicity against human 293T cells assessed as reduction in cell viability up to 30 uM incubated for 6 days by resazurin dye based fluorescence assay. The settings on record: 144 h.
The species entered for data set [7] is Homo sapiens. The data set is described as follows: Inhibition of human MLL1/RBBP5/WDR5 trimeric complex up to 50 uM using Biot-H3 (1-25) as substrate and in presence of [3H]-SAM incubated for 1 hr by scintillation proximity assay. (SPA uses beads or plates that emit light when radiolabelled molecules are held near them.)
For data set [8], the target named is Spindlin-3 (Homo sapiens, UniProt Q5JUX0). Put plainly: Inhibition of recombinant human N-terminal His6-tagged SPIN3 (27 to 258 residues) expressed in Escherichia coli BL21 (DE3) cells assessed as dissociation constant by isothermal titration calorimetry. (ITC needs no label: the signal is the heat of the interaction.)
Spindlin-3, sequence (Q5JUX0 whole entry, the tested form may be a part): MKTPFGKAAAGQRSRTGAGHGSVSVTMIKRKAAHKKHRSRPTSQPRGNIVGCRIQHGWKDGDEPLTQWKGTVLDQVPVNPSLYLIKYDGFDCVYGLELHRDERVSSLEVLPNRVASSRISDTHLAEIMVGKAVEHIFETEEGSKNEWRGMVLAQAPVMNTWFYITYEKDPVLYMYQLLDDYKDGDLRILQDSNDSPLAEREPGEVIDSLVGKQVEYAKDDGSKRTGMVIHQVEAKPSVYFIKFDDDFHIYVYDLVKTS
Data set [9] has as its target T2, Spindlin-4 (Homo sapiens, UniProt Q56A73).
T2 sequence (Q56A73 whole entry): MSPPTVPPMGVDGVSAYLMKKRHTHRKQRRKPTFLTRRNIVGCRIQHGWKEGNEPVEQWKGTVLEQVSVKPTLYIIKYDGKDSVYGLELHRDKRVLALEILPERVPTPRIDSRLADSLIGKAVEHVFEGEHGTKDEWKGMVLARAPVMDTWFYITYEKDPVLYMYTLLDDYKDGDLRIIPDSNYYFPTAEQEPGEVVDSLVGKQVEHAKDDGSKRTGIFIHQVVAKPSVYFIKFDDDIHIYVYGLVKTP
Put plainly: Inhibition of recombinant human N-terminal His6-tagged SPIN4 (36 to 249 residues) expressed in Escherichia coli BL21 (DE3) cells assessed as dissociation constant by isothermal titration calorimetry.

Data set [10] concerns the target Spindlin-2B (Homo sapiens, UniProt Q9BPZ2). The data set is described as follows: Inhibition of recombinant human N-terminal His6-tagged SPIN2B (45 to 258 residues) expressed in Escherichia coli BL21 (DE3) cells assessed as dissociation constant by isothermal titration calorimetry.
Data set [11] has as its system HFF-1. Put plainly: Cytotoxicity against human HFF1 cells assessed as reduction in cell viability up to 30 uM incubated for 6 days by resazurin dye based fluorescence assay. The settings on record: hff-1, 144 h.
Data set [12] is filed under the species Homo sapiens. Put plainly: Binding affinity to JARID1 (unknown origin) assessed as induction of thermal shifts at 20 uM measured for 25 mins by SYPRO orange dye thermal shift assay.
For data set [13], the species on record is Homo sapiens. The data set is described as follows: Inhibition of human MLL3/ASH2L/RBBP5/WDR5/DPY30 pentameric complex up to 50 uM using Biot-H3 (1-25) as substrate and in presence of [3H]-SAM incubated for 1 hr by scintillation proximity assay.
The target of data set [14] is T3, Chromobox protein homolog 7 (Homo sapiens, UniProt O95931).
T3 sequence (O95931 whole entry): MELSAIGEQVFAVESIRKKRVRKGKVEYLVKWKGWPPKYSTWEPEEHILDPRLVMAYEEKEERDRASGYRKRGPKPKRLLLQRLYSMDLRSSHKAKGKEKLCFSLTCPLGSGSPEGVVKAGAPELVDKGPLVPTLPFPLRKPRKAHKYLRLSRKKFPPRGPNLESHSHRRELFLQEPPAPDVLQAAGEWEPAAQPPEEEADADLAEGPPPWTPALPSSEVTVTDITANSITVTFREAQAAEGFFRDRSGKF
The data set is described as follows: Inhibition of CBX7 (unknown origin) assessed as dissociation constant by isothermal titration calorimetry.

Data set [15] deals with T4, E3 SUMO-protein ligase CBX4 (Homo sapiens, UniProt O00257).
T4 sequence (O00257 whole entry): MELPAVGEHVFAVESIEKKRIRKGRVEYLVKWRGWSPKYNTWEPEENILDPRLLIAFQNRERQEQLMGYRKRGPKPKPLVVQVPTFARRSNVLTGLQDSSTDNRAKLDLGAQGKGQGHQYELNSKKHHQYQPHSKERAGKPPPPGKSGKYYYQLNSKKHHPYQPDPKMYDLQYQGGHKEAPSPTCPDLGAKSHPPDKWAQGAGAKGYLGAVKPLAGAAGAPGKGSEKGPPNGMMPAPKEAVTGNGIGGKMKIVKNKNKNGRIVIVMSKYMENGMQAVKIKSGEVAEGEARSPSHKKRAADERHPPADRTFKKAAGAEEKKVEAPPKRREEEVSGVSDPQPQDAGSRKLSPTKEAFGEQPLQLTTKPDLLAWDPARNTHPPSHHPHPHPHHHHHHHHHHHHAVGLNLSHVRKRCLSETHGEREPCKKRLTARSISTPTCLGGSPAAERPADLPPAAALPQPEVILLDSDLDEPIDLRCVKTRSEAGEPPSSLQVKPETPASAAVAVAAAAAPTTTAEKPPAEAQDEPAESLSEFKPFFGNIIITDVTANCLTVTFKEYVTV
The data set is described as follows: Inhibition of CBX4 (unknown origin) assessed as dissociation constant by isothermal titration calorimetry.

Data set [16] concerns the target T1, Spindlin-1. The source holds these as a separate data set.
Data set [17] addresses T1, Spindlin-1. This is another data set of the same source.

Activity calls are given as the source filed them. The rule behind the calls is not given here. Non-standard residues stand in square brackets, D forms with d. Residues, ends and D or L forms follow the SMILES beside them. *: point of attachment. Benzoyl(4-tBu) = CC(C)(C)c1ccc(C(=O)*)cc1; Lys(Et2) = CCN(CC)CCCC[C@H](N)C(=O)O

T1 sequence (Q9Y657 whole entry): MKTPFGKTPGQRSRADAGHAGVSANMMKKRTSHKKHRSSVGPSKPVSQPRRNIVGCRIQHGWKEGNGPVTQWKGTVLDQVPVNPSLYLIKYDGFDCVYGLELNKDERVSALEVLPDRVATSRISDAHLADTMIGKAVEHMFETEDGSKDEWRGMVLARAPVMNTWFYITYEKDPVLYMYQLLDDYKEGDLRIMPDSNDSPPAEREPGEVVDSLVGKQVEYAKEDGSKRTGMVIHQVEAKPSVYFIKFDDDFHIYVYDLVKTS
Spindlin-2B, sequence (Q9BPZ2 whole entry, the tested form may be a part): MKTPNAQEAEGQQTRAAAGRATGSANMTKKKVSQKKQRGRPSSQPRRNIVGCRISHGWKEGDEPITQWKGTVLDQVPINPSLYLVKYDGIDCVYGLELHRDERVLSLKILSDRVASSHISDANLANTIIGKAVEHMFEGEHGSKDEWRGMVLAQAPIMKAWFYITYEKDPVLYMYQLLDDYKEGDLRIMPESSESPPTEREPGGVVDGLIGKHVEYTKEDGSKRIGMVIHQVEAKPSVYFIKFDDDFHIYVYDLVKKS

One may read the IC50 as the midpoint of a concentration-inhibition curve. Higher therefore signals lower potency. As a reminder, the Kd is the constant that tells how readily two partners part at equilibrium. With `COc1c(CN)cc(CN)cc1OCCCN1CCCC1`, the IC50 in data set [1] is 741 nM; in [2], 338 nM. In addition, the inhibition entry in [3] was “inactive”. In addition, the Kd in [4] (read-out: Kd) was determined as 390 nM.
In the case of `COc1c(CN)cc(CN)cc1OCCCN1Cc2ccccc2C1`, the Activity result in data set [5], in data set [6] and in data set [11] was “Non-Toxic” in each case. The inhibition entry in [7], in [3] and in [13] was “inactive” in each case. Further, the Kd in [8], in [9] and in data set [10] was 170 to 1700 nM each time. Besides, the result in data set [12] was inactive.
Take `CCN(CC)CCCC[C@H](NC(=O)[C@H](CC(C)C)NC(=O)[C@H](C)NC(=O)[C@H](C)NC(=O)c1ccc(C(C)(C)C)cc1)C(=O)N[C@@H](CO)C(=O)OC` ({Benzoyl(4-tBu)}-AAL[Lys(Et2)]S-OMe): the values for the Kd in data set [14] and in data set [15] were 97 nM and 94 nM, respectively.
On to `COc1c(CN)cc(C(N)=O)cc1OCCCN1Cc2ccccc2C1`, for which the IC50 entry in data set [16] and in [17] was “Not Active” throughout. The Kd entry in [4] was “Not Active”.
